Experimental data: patent publication US9975903B2, “Condensed heterocyclic compound” (Takeda Pharmaceutical Company Limited, priority 2014, dated 2018)

Tests used:
[1] = target: T1, Human recombinant enteropeptidase (Homo sapiens, UniProt P98073); assay: Human enteropeptidase inhibitory activity (Test Example 1); format: biochemical; conditions: 3.3 μM test compound, inhibition rate from fluorescence intensity at 2 hours after the start of the reaction; for inhibition at 3.3 µM: read-out: 3.3 μM Inhibition
T1 construct: purchased ITSI-Biosciences LLC #REN-260
Procedure, shortened: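 Recombinant human enteropeptidase in 50 mM Tricine pH 8.0, 0.01% Tween 20, 10 mM CaCl2, with a 5FAM/CPQ2-quenched peptide substrate (2.1 μM solution before mixing). Compound came from 1 mM DMSO stock diluted 100-fold in buffer. Fluorescence (ex 485/em 535 nm) at 2 h gave % inhibition versus no-compound and no-enzyme controls.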

[2] = tested on: High fat diet-fed (HFD-fed) mice; assay: Fecal protein concentration-increasing test using HFD-fed mouse (Test Example 2-2); format: in vivo; conditions: male, 47-week old, 10 mg/kg orally, whole feces of first day of administration, average ± standard deviation, five mice
Protocol: (§1) High fat diet-fed (HFD-fed) mice (D12079B diet, male, 47-week old) were orally administered with a 0.5% methyl cellulose suspension containing a test compound (10 mg/kg) (compound administration group, five mice per group) or a 0.5% methyl cellulose suspension (compound non-administration group (vehicle), five mice per group), and whole feces were collected on the first day of administration. Dried feces were dissolved in 0.5 N NaOH, followed by centrifugation at 12,000 rpm. The protein concentration in the supernatant was quantitatively measured (Lowry method), and the amount of protein contained in 1 g of feces was calculated as the fecal protein concentration (mg/g feces). The average and the standard deviation of each group are shown below.

[3] = tested on: High fat diet-fed (HFD-fed) mice; assay: Fecal protein concentration-increasing test using HFD-fed mouse (Test Example 2-1); format: in vivo; conditions: male, 19-week old, 10 mg/kg orally, whole feces of first day of administration, average ± standard deviation, six mice
Protocol: as §1, with “diet, male, 19-week old) were” for “diet, male, 47-week old) were”, “administration group, six mice per” for “administration group, five mice per”, “supernatant was then quantitatively measured” for “supernatant was quantitatively measured”

[4] = tested on: Diet-induced obesity (DIO) mice; assay: Anti-obesity effect test using DIO mouse (Test Example 3); format: in vivo; conditions: male, 32-week old, average ± standard deviation, six mice
Protocol: Diet-induced obesity (DIO) mice (D12079B diet, male, 32-week old) were orally administered with a 0.5% methyl cellulose suspension containing a test compound (10 mg/kg) (compound administration group, six mice per group) or a 0.5% methyl cellulose suspension (compound non-administration group (vehicle), six mice per group) once a day for one week. The averages and the standard deviations of the body weights at the start of administration and after continuous administration for one week are shown below.

T1 sequence (P98073 whole entry): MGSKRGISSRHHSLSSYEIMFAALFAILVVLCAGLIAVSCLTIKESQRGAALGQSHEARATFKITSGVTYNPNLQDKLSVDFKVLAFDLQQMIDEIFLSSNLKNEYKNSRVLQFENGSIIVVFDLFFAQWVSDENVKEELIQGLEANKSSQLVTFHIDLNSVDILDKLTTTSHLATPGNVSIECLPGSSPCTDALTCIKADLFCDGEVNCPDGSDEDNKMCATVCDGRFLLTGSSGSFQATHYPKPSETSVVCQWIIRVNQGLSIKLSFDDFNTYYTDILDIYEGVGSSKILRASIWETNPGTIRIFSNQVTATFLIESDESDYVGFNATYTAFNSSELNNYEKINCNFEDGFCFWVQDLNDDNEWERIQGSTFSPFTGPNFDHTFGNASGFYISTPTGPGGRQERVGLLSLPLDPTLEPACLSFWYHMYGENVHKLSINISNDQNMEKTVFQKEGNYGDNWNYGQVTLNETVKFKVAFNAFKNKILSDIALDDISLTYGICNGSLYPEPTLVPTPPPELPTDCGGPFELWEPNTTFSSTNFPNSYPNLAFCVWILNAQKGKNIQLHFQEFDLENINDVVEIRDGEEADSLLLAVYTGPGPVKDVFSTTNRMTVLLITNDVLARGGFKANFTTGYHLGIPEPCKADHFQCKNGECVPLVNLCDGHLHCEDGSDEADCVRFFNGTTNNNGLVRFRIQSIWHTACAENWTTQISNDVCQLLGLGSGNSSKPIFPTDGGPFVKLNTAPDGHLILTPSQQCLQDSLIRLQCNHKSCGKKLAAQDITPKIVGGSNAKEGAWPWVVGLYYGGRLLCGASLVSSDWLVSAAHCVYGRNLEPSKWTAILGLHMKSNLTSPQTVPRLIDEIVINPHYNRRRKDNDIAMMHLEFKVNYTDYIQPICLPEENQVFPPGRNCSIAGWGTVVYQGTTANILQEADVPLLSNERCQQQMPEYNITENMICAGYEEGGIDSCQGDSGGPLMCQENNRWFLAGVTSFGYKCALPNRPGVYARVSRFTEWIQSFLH

Row | SMILES | inhibition at 3.3 µM [1] [%] | Fecal protein concentration (mg/g feces) [2] [mg/g feces] | further results
1 | N=C(N)Nc1ccc2c(c1)CCCOc1c(cccc1C(=O)N(CC(=O)O)[C@@H](Cc1ccc(OCCN(CC(=O)O)Cc3ccccc3)cc1)C(=O)O)OC2=O [Example 122, O-(2-(Benzyl(carboxymethyl)amino)ethyl)-N-((10-carbamimidamido-13-oxo-6,7,8,13-tetrahydrodibenzo[b,f][1,4]dioxecin-4-yl)carbonyl)-N-(carboxymethyl)-L-tyrosine] | 101 | 165.4 ± 16.2 | –
2 | N=C(N)Nc1ccc2c(c1)CCCOc1c(cccc1C(=O)N1CCC[C@H]1C(=O)N[C@@H](CC(=O)O)C(=O)O)OC2=O [Example 99, 1-((10-Carbamimidamido-13-oxo-6,7,8,13-tetrahydrodibenzo[b,f][1,4]dioxecin-4-yl)carbonyl)-L-prolyl-L-aspartic acid] | 100 | – | –
3 | N=C(N)Nc1ccc2c(c1)CCCOc1c(cccc1C(=O)Nc1ccc(S(=O)(=O)O)cc1)OC2=O [Example 5, N-(((10-carbamimidamido-13-oxo-6,7,8,13-tetrahydro-dibenzo[b,f] [1,4]dioxecin-4-yl)carbonyl)amino) benzenesulfonic acid] | 101 | – | –
4 | N=C(N)Nc1ccc2c(c1)CCCCc1c(CCC(=O)N[C@@H](CC(=O)O)C(=O)O)ccc(F)c1OC2=O [Example 41, N-(3-(3-carbamimidamido-12-fluoro-14-oxo-5,7,8,14-tetrahydro-6H-dibenzo[b,h]oxacin-9-yl)propanoyl)-L-aspartic acid] | 71 | – | –
5 | N=C(N)Nc1ccc2c(c1)CCCOc1c(cccc1C(=O)N[C@@H](CC(=O)O)C(=O)O)OC2=O [Example 3, N-((10-Carbamimidamido-13-oxo-6,7,8,13-tetrahydrodibenzo[b,f][1,4]dioxecin-4-yl)carbonyl)aspartic acid] | – | – | 3.3 μM Inhibition [1]: 101%; Fecal protein concentration (mg/g feces) [3]: 233.3 ± 35.9 mg/g feces; Body Weight (g) After continuous administration for one week ([4]; 10 mg/kg orally once a day for one week): 41.4 ± 2.2 g; Body Weight (g) Start of administration ([4]; group given 10 mg/kg orally once a day, baseline): 44.5 ± 2.2 g

More lines, main results first:

Row | inhibition at 3.3 µM [1] [%] | SMILES | Fecal protein concentration (mg/g feces) [2] [mg/g feces] | further results
6 | 101 | N=C(N)Nc1ccc2c(c1)CCCOc1c(cccc1C(=O)N(CCN(CC(=O)O)CC(=O)O)CC(=O)O)OC2=O [Example 120, N-(2-(Bis(carboxymethyl)amino)ethyl)-N-((10-carbamimidamido-13-oxo-6,7,8,13-tetrahydrodibenzo[b,f][1,4]dioxecin-4-yl)carbonyl)glycine] | 194.6 ± 48.1 | –
7 | 99 | N=C(N)Nc1ccc2c(c1)CCCOc1c(ccc(CCC(=O)O)c1C(=O)N(CC(=O)O)Cc1cccc(C(=O)O)c1)OC2=O [Example 145, 3-((((10-Carbamimidamido-3-(2-carboxyethyl)-13-oxo-6,7,8,13-tetrahydrodibenzo[b,f][1,4]dioxecin-4-yl)carbonyl) (carboxymethyl)amino)methyl)benzoic acid] | 201.3 ± 45.3 | –
8 | 100 | N=C(N)Nc1ccc2c(c1)CCCOc1c(cccc1C(=O)N(Cc1cccc(C(=O)O)c1)[C@@H](CC(=O)O)C(=O)O)OC2=O [Example 136, N-((10-Carbamimidamido-13-oxo-6,7,8,13-tetrahydrodibenzo[b,f][1,4]dioxecin-4-yl)carbonyl)-N-(3-carboxybenzyl)-L-aspartic acid] | 274.3 ± 74.6 | –
9 | 101 | COc1ccc(C[C@@H](C(=O)O)N(CC(=O)O)C(=O)c2cccc3c2OCCCc2cc(NC(=N)N)ccc2C(=O)O3)cc1 [Example 94, N-((10-Carbamimidamido-13-oxo-6,7,8,13-tetrahydrodibenzo[b,f][1,4]dioxecin-4-yl)carbonyl)-N-(carboxymethyl)-O-methyl-L-tyrosine] | 201.0 ± 21.8 | –
